Experimental data: a melting point compilation (Tetko et al.; mined from patent text by program, amines drawn as free bases though some values may be those of a salt)

SMILES	melting point
CCn1nc2c(N)nc3ccccc3c2c1CCCCN1C(=O)c2ccccc2C1=O	216 to 217 °C
CN(C)c1ccc(C(=O)C(C)(C)N2CCOCC2)cc1	152 to 155 °C
COC(=O)c1cc([N+](=O)[O-])c(C(F)(F)F)cc1N	175 to 177 °C
CSCC(C)OC(=O)C(=C1NCCCS1)[N+](=O)[O-] (stereo not drawn)	58 to 60 °C
CCOc1cc(Cc2cnc(N)nc2N)cc(OCC)c1C(C)=O	229 to 231 °C
CSc1ccc(NC(C#N)c2ccc(OC(F)F)cc2)cc1 (stereo not drawn)	98 to 99 °C
O=c1c2cc(F)c(N3CCCC3)nc2n(Cc2ccccc2)c(=O)n1OCc1ccccc1	171 to 172 °C
O=Cc1ccc(O)c2ccsc12	204 °C
CCC1c2cccn2-c2cc(O)c(F)cc2N1S(=O)(=O)c1ccc(O)c(C)c1 (stereo not drawn)	194 to 196 °C
Nc1cc(=O)n(Cc2ccc3c(c2)OCO3)[nH]1	218 °C
CN1C(=O)C(NC(=O)Nc2ccc([N+](=O)[O-])cc2)N=C(c2ccccc2)c2ccccc21 (stereo not drawn)	292 to 293 °C
FC(F)(F)c1ccc(Cl)c(CN2CCNc3ncc(I)cc32)c1	120 to 125 °C
Cc1ccc(S(=O)(=O)NCCCCOc2ccc(-n3ccnc3)cc2)cc1	96 to 98 °C
O=C(O)c1ccccc1OCCNC(=O)C1Cc2ccccc2N1S(=O)(=O)c1ccc(-c2cccc(C(F)(F)F)c2)cc1 (stereo not drawn)	70 °C
COc1cccc(OC)c1C(=O)NC(=S)NNC(=O)c1ccc(Cl)cc1	206 to 208 °C
COC(=O)c1cnc(OC)c([N+](=O)[O-])c1	118 to 119 °C
COc1cccc(N(C)C(=O)Oc2ccc(C(C)C)cc2)n1	64 to 65 °C
CCOC(=O)C(C)(C)Oc1ccc(CNc2ccc(Cl)cc2)cc1	58 to 60 °C
CC1COCC(C)N1c1ccc(-c2nc(C(=O)Nc3nccs3)c(-c3ccc(Cl)cc3)[nH]2)cc1 (stereo not drawn)	> 250 °C
CCOC[C@H]1CN(c2ccc(OCc3ccccc3)cc2)C(=O)O1	92 °C
COc1cccc(-c2ccc3cc(OC)ccc3c2C(=O)c2ccc(O)cc2)c1	158 to 159 °C
COc1cc2c(cc1C(F)(F)F)N(C(=O)Nc1cc(-c3ccccc3)cc(-c3cccnc3)c1)CC2	150 to 151 °C
CCOC(=O)C1CCN(c2nc(CCl)c(C)s2)CC1	76 to 77 °C
COc1ccc(-c2nn(Cc3ccc(F)cc3)c(=O)cc2-c2ccncc2)cc1	154 to 155 °C
CC1C[C@H]2[C@@H]3CCC4=CC(=O)CC[C@]4(CS)[C@H]3CC[C@]2(C)C1=O (stereo partly drawn)	130 to 132 °C

SMILES	melting point
CC(Cl)(Cl)C(NC(=O)c1ccc(Cl)cc1)NC(=NC#N)Nc1ccc(Cl)nc1 (stereo not drawn)	199 to 200 °C
CCCCCOc1ccc(-c2ncc(C#N)c(Cl)n2)cc1	140 to 142 °C
CN1CCC(=C2c3ccccc3C=Cc3ccc(C(=O)OCN4C(=O)CN(C)C4=O)cc32)CC1	188 to 189 °C
CC(C)(C)c1cc(Cl)c(O)c(C=O)c1	75 to 77 °C
CCCCN1CCC(CNC(=O)c2cc(Cl)cc3c2OCCO3)C(O)C1 (stereo not drawn)	112 °C
COc1ccc(/C=C/C(=O)C2C(=O)CC(c3ccc(OC)cc3)C([N+](=O)[O-])C2c2ccco2)cc1 (stereo not drawn)	192 °C
Cc1cc(Oc2ncc(C(F)(F)F)cc2Cl)nn1C(=O)Nc1ccccc1	116 to 118 °C
O=CN(Cc1ccccn1)C1(c2ccc(-c3ccccc3)cc2)CCC1	101 °C
COc1ccccc1Cc1nc2ccccc2c(=O)n1CCO	154 to 155 °C
CC(=O)c1oc2ccccc2c1NC(=O)/C(C#N)=C(/C)O	206 to 208 °C
NC1CCc2ccccc2C1NC(=O)OCc1ccccc1 (stereo not drawn)	102 to 145 °C
COCCOC(=O)C1=C(O)c2ccccc2S(=O)(=O)N1	120 to 122 °C
Cc1cnnc2c(-c3ccc(F)cc3)c(-c3ccncc3)nn12	202 to 204 °C
CN1C(=O)C(CCCCNC(=O)OCc2ccccc2)NC1=S (stereo not drawn)	135 °C
CCCCNC(=O)[C@@H](C[C@H](O)[C@H](CC1CCCCC1)NC(=O)[C@H](Cc1cscn1)NC(=O)[C@@H](CC(=O)N1CCOCC1)Cc1ccccc1)C(C)C	161 to 163 °C
CC1COC(C2CCC(O)C2)N1C(=O)c1ccccc1 (stereo not drawn)	83 to 85 °C
CC(C)(C)C(NC(=O)c1cc(F)cc(F)c1)Nc1c(Nc2cccnc2Cl)c(=O)c1=O (stereo not drawn)	215 to 217 °C
CCNC(=O)n1nc(Oc2c(F)cc(C(F)(F)F)cc2Cl)cc1C	58 to 60 °C
COC(=O)c1ccc2cc(OC)c(OC)cc2c1-c1ccnc(Cl)c1	142 to 145 °C
CCN(CC)CCCNC(=O)Cn1cnc(-c2ccccc2)c1-c1ccccc1	81 to 83 °C
CCCCC(=O)SCC(Cc1ccccc1)C(=O)Nc1cccc(C(=O)O)c1C (stereo not drawn)	113 to 114 °C
CCc1cc(C)cc(CC)c1CC(=O)O	124 °C
COC(=O)C(C)(C)Cc1c(SC(C)(C)C)c2ccc(OC)cc2n1C	97 to 98 °C
Cc1c(Br)cc(C(C)(C)C)c(O)c1-c1nc2cc(OC(F)(F)F)ccc2[nH]1	235 to 236 °C
N#Cc1ccc(N2CCC(C(N)=O)CC2)c2ccccc12	249 to 250 °C

SMILES	melting point
CCCCCCC(CCC(=O)OO)CC(=O)OO (stereo not drawn)	51.5 to 52.5 °C
CN(S(C)(=O)=O)S(=O)(=O)N=C=O	140 °C
CCOC(=O)CSc1cc(Cl)nc(NCc2ccc(Cl)cc2)n1	122 to 125 °C
Cc1nnc2ccc(-c3ccc([N+](=O)[O-])c(C(F)(F)F)c3)nn12	293 to 295 °C
COC(=O)C(Sc1ccc(Cl)cc1)c1ccc(Oc2ccccc2)cc1 (stereo not drawn)	66 to 67.5 °C
COC(=O)c1ccccc1NCc1ccncc1	86 °C
FC(F)(F)c1cccc(N2CCN(Cc3n[nH]c4c(Cl)cccc34)CC2)c1	133 to 134 °C
CNC(=O)N1CCC(Oc2c(F)c(F)c(F)c(F)c2F)(c2ccccc2)CC1	87 to 89 °C
O=C(NC(C(=O)O)C(=O)O)OCc1ccccc1	144 to 145 °C
CCOC(=O)c1ccc(CNC(=O)c2csc3nc(C(=O)OCC)[nH]c(=O)c23)cc1	227 to 228 °C
CCOC(=O)C(C)(C)S(=O)c1ccc2c(-c3ccc(Cl)cc3)noc2c1 (stereo not drawn)	89 °C
CCc1[nH]n(C2CCCC2)c2nc(COS(C)(=O)=O)nc(=O)c1-2	138 to 140 °C
CN(C)C(=O)C(CCN1CCC(Nc2nc3cncnc3n2Cc2ccccn2)CC1)(c1ccccc1)c1ccccc1	192 °C
CC(=O)N(O)Cc1ccc(OCc2ccccc2)cc1	119 to 120 °C
O=C(NCCO)/C(=C/c1ccc(OC(F)F)cc1)NC(=O)c1ccc(OCCc2ccccc2)cc1	155 to 157 °C
CCCC1CCC(O)CC1 (stereo not drawn)	109 °C
COC(=O)C1=C(C)NC(C)=C(C(=O)c2ccco2)C1c1ccccc1[N+](=O)[O-] (stereo not drawn)	90 to 92 °C
CC(=O)OC1C(C)=C(C)C(=O)N1c1nc2ccc(F)cc2s1 (stereo not drawn)	180 to 183 °C
CCCCOc1c(CNC(=O)OC(C)(C)C)n(CC(C)C)c(=O)c2ccc(/C=C/c3cscn3)cc12	141 to 142 °C
COCCN1CCc2ccc(Nc3ncc(Cl)c(N[C@@H]4CCC[C@H]4NS(C)(=O)=O)n3)cc2CC1 (relative stereo)	74 °C
O=P(O)(O)Cc1ccc(-c2ccc(CP(=O)(O)O)cc2)cc1	114 °C
CC(C)CCOC(=O)c1cccc(-c2cn(C)cc(-n3cccn3)c2=O)c1	115 to 118 °C
Cc1c(C(=O)N2CCC[C@H](C)C2)[nH]c2ccccc12	198 to 200 °C
Cn1cc(C(N)=O)c(=O)c2ccc(Cl)cc21	> 240 °C
N#CCCCCCC(=NOCCNC(c1ccccc1)(c1ccccc1)c1ccccc1)c1ccc(Cl)c(Cl)c1	131 to 132 °C

SMILES	melting point
CC(C)n1nc(-c2c(-c3ccccc3)nn3ccc(N4CCN(S(C)(=O)=O)CC4)cc23)ccc1=O	219 to 220 °C
CCn1c(Nc2cc(Cl)ccc2Cl)nc(C(F)(F)F)cc1=O	167 to 168 °C
CC(=O)SCCC1C(=O)N2CCCC(C(=O)OC(C)(C)C)N2C1=O (stereo not drawn)	86 to 88 °C
Cc1ccc(NC(=O)c2cc(Br)c(Br)s2)cc1C	216 to 217 °C
O=C(OCc1ccccc1)c1cccc(OCc2ccccc2)c1[N+](=O)[O-]	81.7 to 84.7 °C
CN(C(=O)CNc1cc(-c2ccccc2)nc(-c2ccc(C(F)(F)F)cc2)n1)C1CC1	179 to 180 °C
CCOC(=O)C(=CNc1ccnn1Cc1ccco1)C(=O)OCC	84 to 86 °C
Cc1nc(CC(C)C)c(C#N)c(-c2ccc(Cl)cc2)c1C(=O)OC(C)(C)C	70 to 72 °C
CCCCCCCCCCCCCCCC(=O)N[C@H]1CCCNC(=O)C1	99 to 100 °C
O=C(NN1CCCCC1)c1nn(-c2ccc(Cl)cc2Cl)c2c1SCc1cc(Cl)ccc1-2	148 °C
CCCCCCCCCCCCCCCCCCNC(=O)OCC1(CNS(=O)(=O)CCCI)CCCO1 (stereo not drawn)	66.5 to 67.5 °C
CN(N)c1ccc(-c2ccc(Cl)cc2)nn1	170 to 172 °C
COc1ccc(C2COc3c(ccc(O)c3C)C2O)cc1 (stereo not drawn)	162 °C
CC[C@@H](c1ccccc1)N(Cc1ccc(C(=O)O)cc1)S(=O)(=O)c1ccc(Cl)cc1	154 to 156 °C
c1ccc(COc2cc3ccncc3cc2OCc2ccccc2)cc1	97 °C
CSc1c(C)cc(O)c(C(=O)Nc2ccc(S(=O)(=O)C(F)(F)F)cc2Cl)c1C	201 to 202 °C
COc1cc2c(nc1OC)c(-c1cc3cc(F)cnc3[nH]1)cn2CCN1CCOCC1	218 °C
COCOc1cc(C(=O)O)ccc1-c1ccc(-c2ccccc2)c(-c2ccc3c(c2)C(C)(C)CCC3(C)C)c1	122 °C
COc1ccc(C)cc1NC(=O)Nc1ccc(N2CCN(Cc3ccccc3)CC2)cc1	184 to 186 °C
CCCCc1nc2c(N)nc(C)c(C)c2n1CCCCNS(=O)(=O)N(C)C	130 to 131 °C
O=C(COc1ccc(C(=O)CN2CCN(c3ccncc3)CC2)cc1)NCc1ccccc1	150 to 151 °C
C=CCN(CC=C)Cc1nc(-c2ncn3c2CN(C)C(=O)c2c(Cl)cccc2-3)no1	126 to 130 °C
CCSc1nsc(NC(=O)Oc2ccccc2)c1C#N	223 to 225 °C
